This is an account of results in patent US11319300B2, “Polyfluoro-substituted aromatic heterocyclic derivative, pharmaceutical composition containing same, and applications thereof” (ZHEJIANG UNIVERSITY, priority 2017, dated 2022).

Marks after values point to notes of the source that are not given here.

The subject of data set [1] is PKC. As to the kind of experiment: Kinase selectivity assay (Caliper), PKC. In kind it is biochemical. The note with it: PKC versus Akt1. The procedure:
(§1) A Sixty-Second Embodiment: Kinase Selectivity Assay Test Compound Configuration 1) DMSO was configured with 50× compound stock solution for use. 2) Each compound was diluted in a 96-well plate at a concentration gradient of 5 to 7 to ensure a drug volume of 10 μl per well, to 6 to 7 concentrations, while 100 μl of DMSO was added as a blank control group, and a negative control group without an enzyme substrate was added. 3) Another 96-well plate was prepared, and 10 μl of the above compound was added to 90 μl of 1×kinase base buffer and mixed for 10 min. The board to be tested was prepared: 1) Take a mixture of 5 μl to 384-well plates in a 96-well plate of the above configuration, and per compound has two replicate wells. Kinase Reaction: 1) Configurate a 2.5×kinase solution and add the corresponding 1×kinase base buffer; 2) Configurate a 2.5× polypeptide solution, add a FAM-labeled polypeptide and ATP in a 1×kinase base buffer; 3) 10 μl of 2.5× kinase solution was added to the 384-well plate to be tested, put at room temperature for 10 min, then 10 μl of 2.5× polypeptide solution was added, and after reacting at 28° C. for 1 h, 25 μl of reaction stop buffer was added. The Caliper program reads the plate and uses the data to obtain the IC50 value of the corresponding compound inhibiting kinase. […]

Data set [2] concerns the target PKA (Homo sapiens, UniProt P17612). As to the kind of experiment: Kinase selectivity assay (Caliper), PKA. The data set is classed as biochemical. To be noted: PKA versus Akt1. As for the experimental part:
as §1

The target of data set [3] is T1, hERG potassium channel (Homo sapiens, UniProt Q12809).
T1 construct: host or cells: CHO
T1 sequence (Q12809 whole entry): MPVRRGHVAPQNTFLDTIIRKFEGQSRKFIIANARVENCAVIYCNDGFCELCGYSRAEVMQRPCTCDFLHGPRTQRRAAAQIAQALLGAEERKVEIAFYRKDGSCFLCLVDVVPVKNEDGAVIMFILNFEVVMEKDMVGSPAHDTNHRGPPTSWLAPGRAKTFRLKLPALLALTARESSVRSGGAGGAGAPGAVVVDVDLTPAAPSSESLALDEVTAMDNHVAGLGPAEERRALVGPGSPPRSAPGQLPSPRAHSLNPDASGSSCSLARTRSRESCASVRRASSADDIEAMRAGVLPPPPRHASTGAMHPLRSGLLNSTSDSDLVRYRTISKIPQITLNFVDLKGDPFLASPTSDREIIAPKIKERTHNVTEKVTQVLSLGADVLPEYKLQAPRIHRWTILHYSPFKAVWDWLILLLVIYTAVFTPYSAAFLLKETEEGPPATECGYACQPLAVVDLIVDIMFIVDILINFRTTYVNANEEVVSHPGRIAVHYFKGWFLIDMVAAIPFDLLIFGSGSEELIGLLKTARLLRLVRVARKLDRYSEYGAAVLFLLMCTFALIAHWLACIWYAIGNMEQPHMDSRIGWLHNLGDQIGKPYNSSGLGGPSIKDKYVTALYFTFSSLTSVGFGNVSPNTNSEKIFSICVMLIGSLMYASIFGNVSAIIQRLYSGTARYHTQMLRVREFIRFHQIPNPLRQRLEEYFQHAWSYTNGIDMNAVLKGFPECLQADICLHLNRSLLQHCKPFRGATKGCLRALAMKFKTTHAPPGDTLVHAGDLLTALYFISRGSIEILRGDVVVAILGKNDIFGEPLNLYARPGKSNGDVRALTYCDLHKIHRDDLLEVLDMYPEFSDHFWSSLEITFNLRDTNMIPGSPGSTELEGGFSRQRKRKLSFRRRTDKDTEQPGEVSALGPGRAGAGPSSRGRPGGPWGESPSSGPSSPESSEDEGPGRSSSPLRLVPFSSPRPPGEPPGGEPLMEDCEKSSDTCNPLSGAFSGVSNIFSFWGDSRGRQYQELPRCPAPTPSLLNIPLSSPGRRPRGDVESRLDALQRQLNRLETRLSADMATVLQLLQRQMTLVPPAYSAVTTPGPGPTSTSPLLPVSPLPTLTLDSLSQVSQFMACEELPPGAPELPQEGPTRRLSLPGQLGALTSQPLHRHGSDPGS
As to the kind of experiment: hERG potassium channel inhibition, manual whole-cell patch clamp in CHO hERG cells. To be noted: for hERG (Inhibition rate at 3 μM concentration): CHO hERG cells, patch clamp. The data set is classed as cell-based. The procedure: A Sixty-Third Embodiment: hERG Potassium Channel Inhibition Activity Experiment
The cells used in this assay were CHO cell lines transfected with hERG cDNA and stably expressing the hERG channel (supplied by Sophion Bioscience, Denmark). The cells were cultured in medium containing the following components (all from Invitrogen): Ham's F12 medium, 10% (v/v) inactivated fetal bovine serum, 100 μg/ml hygromycin B, and 100 μg/ml Geneticin. 2.1.2CHO hERG cells were grown in a Petri dish containing the above culture solution, and cultured in an incubator containing 5% of CO2 at 37° C. 24 to 48 hours prior to electrophysiological experiments, CHO hERG cells were transferred to circular glass slides placed in petri dishes and grown under the same culture and culture conditions as above. The density of CHO hERG cells on each circular slide requires that most cells achieve independent, individual requirements.
2. Compound Treatment and Dilution
To obtain the IC50 of the compound, we selecte the following concentrations (30, 10, 3, 1, 0.3, and 0.1 μM) for testing. Prior to testing, the […] were first diluted to 10, 3, 1, 0.3, and 0.1 mM stock solution in gradual dilution with DMSO and then diluted to the final μM test concentration with extracellular fluid. The final concentration of DMSO in each of the other compound solutions was 0.1% except that the DMSO concentration in the 30 μM compound test solution was 0.3%. The positive control Cisapride (cishabili) was tested at a concentration of 0.1 μM. All compound solutions were sonicated and shaken for 5 to 10 minutes to ensure complete dissolution of the compound.
3. Electrophysiological Recording System and Data Analysis
This experiment uses a manual patch clamp system (HEKA EPC-10 signal amplifier and digital conversion system, purchased from HEKA Electronics, Germany) for the recording of whole cell currents. Round slide with CHO hERG cells on the surface was placed in an electrophysiology recording cell under an inverted microscope. The extracellular fluid was continuously perfused in the recording tank (about 1 ml per minute). The experimental procedure uses conventional whole-cell patch clamp current recording techniques. Unless otherwise stated, the experiments were carried out at regular room temperature (˜25° C.). The cells were clamped at a voltage of −80 mV. The cell clamp voltage was depolarized to +20 mV to activate the hERG potassium channel, and after 5 seconds it was clamped to −50 mV to eliminate inactivation and generate tail current. The tail current peak was used as the value of the hERG current magnitude. After the hERG potassium current recorded in the above step was stabilized under the continuous extracellular fluid perfusion in the recording tank, the drug to be tested can be superimposed and filled until the inhibitory effect of the drug on the hERG current reaches a steady state. Generally, the recent three consecutive current recording lines were recombined as a criterion for judging whether or not the state is stable. After reaching a steady state, extracellular fluid perfusion rinse until hERG current returns to the size before adding drug. One cell can test one or more drugs, or multiple concentrations of the same drug, but need to be flushed with extracellular fluid between different drugs. Cisapride (cisapride, purchased from Sigma) was used in the experiment as a positive control to ensure that the cells used were of normal quality. The test data was analysed by HEKA Patchmaster, Microsoft Excel and data analysis software provided by Graphpad Prism.
(The hERG channel carries a current that helps repolarise heart muscle cells.)

The target in data set [4] is T2, AKT1/PKBα (Homo sapiens, UniProt P31749).
T2 construct: purchased
T2 sequence (P31749 whole entry): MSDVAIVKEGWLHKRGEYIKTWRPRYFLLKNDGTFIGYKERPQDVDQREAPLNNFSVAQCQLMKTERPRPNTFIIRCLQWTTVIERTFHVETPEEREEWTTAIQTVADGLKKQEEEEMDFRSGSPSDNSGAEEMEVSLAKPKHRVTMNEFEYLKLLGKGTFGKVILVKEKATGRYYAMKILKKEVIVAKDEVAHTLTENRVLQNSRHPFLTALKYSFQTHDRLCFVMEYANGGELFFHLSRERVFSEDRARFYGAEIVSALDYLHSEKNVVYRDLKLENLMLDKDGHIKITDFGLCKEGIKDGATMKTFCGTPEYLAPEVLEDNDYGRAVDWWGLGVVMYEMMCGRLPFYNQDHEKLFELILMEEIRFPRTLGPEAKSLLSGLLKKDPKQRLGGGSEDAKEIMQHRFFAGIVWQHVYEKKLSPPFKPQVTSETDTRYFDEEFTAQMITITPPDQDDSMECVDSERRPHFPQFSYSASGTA
As to the kind of experiment: Akt1 enzyme inhibitory activity, AKT1/PKBα KinEASE FP Fluorescein Green Assay. In kind it is biochemical. To be noted: fluorescence polarization kit assay; read-out: Akt1 IC50 (grade). The method in brief: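 Fluorescence polarization competition: AKT1 with STK Substrate 3 and ATP, 1 h at room temperature, then stop mix and anti-phosphoserine antibody/tracer, 4 h before FP read. Compounds diluted to 50 μM in DMSO before addition, triplicate wells; inhibition from polarization values, IC50 calculated and binned into grades.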
Background: Fluorescence polarisation rises when a labelled molecule tumbles more slowly, as on binding a larger partner.

Data set [5] has as its target Akt3 (Homo sapiens, UniProt Q9Y243). As to the kind of experiment: Kinase selectivity assay (Caliper), Akt3. To be noted: Akt3 versus Akt1. The data set is classed as biochemical. The procedure:
as §1

Data set [6] relates to HGC27. Briefly: Tumour cell proliferation inhibition, MTT assay, HGC27. To be noted: Homo sapiens, HGC-27, 72 h. The data set is classed as cell-based, human. In general terms: Tetrazolium assays rely on reduction of a dye to a coloured formazan, in cell work by metabolically active cells.
Data set [7] concerns the target Akt2 (Homo sapiens, UniProt P31751). Briefly: Kinase selectivity assay (Caliper), Akt2. The data set is classed as biochemical. The note with it: Akt2 versus Akt1. The procedure: as §1
The subject of data set [8] is CEM-C1. Briefly: Tumour cell proliferation inhibition, MTT assay, CEM-C1. In kind it is cell-based, human. To be noted: Homo sapiens, CEM/C1, 72 h.
For data set [9], the system named is human gastric cancer HGC27 nude mice xenografts. Briefly: In vivo antitumour activity, human gastric cancer HGC27 nude mice xenografts. The note with it: HGC27 xenograft, 50 mg/kg intragastric once a day. The procedure: (§2) A Sixty-Fifth Embodiment: In Vivo Antitumour Activity of Compounds
(§3) 1) Establishment of a nude mouse xenograft model: 1×10^7 test tumour cells were injected into the armpit of nude mice, after three generations, HGC27 mouse tumour blocks were dissected and placed in a glass dish containing physiological saline, after the necrotic area was removed by incision, the tumour mass was cut into 1-2 mm^3 and inserted into the left axilla of the nude mouse with a trocar.
(§4) 2) Animal grouping and drug delivery arrangements: after the tumour grows to an average volume of 100-300 mm^3, 20 mice were randomly grouped according to the tumour volume, and the above test animals were given the corresponding test substances by intragastric administration at a dose of 10 mL/kg with once a day.
(§5) 3) Data measurement and statistics: The tumour volume was weighed and measured twice and dosing period was 21 days. On the 22nd day, after the body weight was weighed and the tumour volume was measured, the nude mice were sacrificed and the tumours were weighed to calculate the relative tumour volume (RTV), relative tumour growth rate (T/C) and tumour inhibition percentage (IR) for statistical testing. The calculation formula was as follows: (a) TV (tumour volume)=½×a×b^2, wherein a and b represent the length and width of the tumour respectively, (b) RTV (relative tumour volume)=Vt/V0, Where V0 is the tumour volume measured at the time of group administration (i.e. d0), Vt is the tumour volume at each measurement, (c) T/C (%)=TRTV/CRTV×100%, wherein TRTV is the RTV of treatment group, CRTV is the RTV of the solvent control group, (d) IR (%)=(1−TWt/TWc)×100%, wherein TWt is the tumour weight of the treatment group, and TWc is the tumour weight of the solvent control group.

In data set [10] the test system is human kidney cancer 786-O nude mice xenografts. As to the kind of experiment: In vivo antitumour activity, human kidney cancer 786-O nude mice xenografts. The note with it: 786-O xenograft; for Tumour volume D1: D 1 (start); for Tumour volume D1 / RTV: x ± SE; for Tumour volume D 21: D 21, x ± SE. The procedure:
[Worded in the source for another cell line; this cell line is reported under the same test.] as §2, §3, §4, §5

A short description of data set [11]: Oral pharmacokinetic experiment in SD rats. In kind it is in vivo. To be noted: oral administration. The procedure:
[…] The blood sampling times of the tail vein administered by intragastric administration were 0.25, 0.5, 1, 2, 4, 6, 8, 10, 24 hours; the times of blood collection by intravenous administration were 0.05, 0.1, 0.17, 0.5, 1, 2, 4, 6, 8, 10, 24 hours. 0.3 ml of whole blood was taken, and after centrifugation, 0.1 ml of plasma was taken and analysed by LC-MS.

Data set [12] has as its system human ovarian cancer SKOV3 nude mice xenografts. As to the kind of experiment: In vivo antitumour activity, human ovarian cancer SKOV3 nude mice xenografts. To be noted: SKOV3 xenograft, 50 mg/kg.
The mark [13] stands for this setting: rat, in vivo, 20 mg/kg, mean n = 3.
[14] abbreviates: same concentration (3 μM), ratio of inhibition rates.

Chain of Akt3 (Q9Y243 whole entry): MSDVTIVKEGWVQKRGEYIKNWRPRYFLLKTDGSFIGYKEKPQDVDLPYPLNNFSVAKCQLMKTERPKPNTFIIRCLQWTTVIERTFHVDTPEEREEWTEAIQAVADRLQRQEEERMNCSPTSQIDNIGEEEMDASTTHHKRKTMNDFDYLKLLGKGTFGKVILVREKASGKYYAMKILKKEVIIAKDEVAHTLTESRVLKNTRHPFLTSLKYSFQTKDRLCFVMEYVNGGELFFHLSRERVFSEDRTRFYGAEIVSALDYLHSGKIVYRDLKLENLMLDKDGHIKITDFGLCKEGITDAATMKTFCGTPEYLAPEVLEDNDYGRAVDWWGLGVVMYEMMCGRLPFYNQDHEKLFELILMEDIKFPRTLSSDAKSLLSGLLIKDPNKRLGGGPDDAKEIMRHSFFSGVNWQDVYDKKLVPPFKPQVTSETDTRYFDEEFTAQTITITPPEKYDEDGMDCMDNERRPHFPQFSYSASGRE
Chain of Akt2 (P31751 whole entry): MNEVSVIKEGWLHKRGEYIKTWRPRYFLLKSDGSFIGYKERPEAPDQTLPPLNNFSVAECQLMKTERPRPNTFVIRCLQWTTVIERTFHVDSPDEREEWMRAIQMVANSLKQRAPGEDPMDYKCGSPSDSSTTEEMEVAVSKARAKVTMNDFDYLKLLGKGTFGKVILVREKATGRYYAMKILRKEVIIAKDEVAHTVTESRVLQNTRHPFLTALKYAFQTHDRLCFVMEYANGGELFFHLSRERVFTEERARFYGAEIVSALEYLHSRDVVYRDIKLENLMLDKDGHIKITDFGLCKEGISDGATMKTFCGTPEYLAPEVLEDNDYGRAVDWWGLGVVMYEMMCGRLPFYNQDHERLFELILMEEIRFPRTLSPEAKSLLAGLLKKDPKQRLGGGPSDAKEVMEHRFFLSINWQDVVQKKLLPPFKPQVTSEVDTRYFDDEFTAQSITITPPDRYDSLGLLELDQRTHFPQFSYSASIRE

As to `Cn1ncc(Cl)c1-c1cc(C(=O)N[C@H](CN)Cc2ccc(F)c(F)c2)oc1Cl` [GSK2141795, reference compound], the “Kinase selectivity: (PKC inhibitory activity IC50)/(Akt1 inhibitory activity IC50)” value in data set [1] was 28-times. Also, in data set [2], the “Kinase selectivity: (PKA inhibitory activity IC50)/(Akt1 inhibitory activity IC50)” value is on record as 1.2-times. Moreover, the “hERG (Inhibition rate at 3 μM concentration)” value in data set [3] is 50%.
Broadly, the IC50 is the concentration needed to halve the response being measured. With `Cn1nccc1-c1cc(F)c(C(=O)N[C@@H]2CNCC[C@H]2c2ccc(F)c(F)c2)c(F)c1` [VII-12], the “Kinase selectivity: (PKA inhibitory activity IC50)/(Akt1 inhibitory activity IC50)” value in data set [2] is recorded as 1.3-times. In addition, the IC50 in [4] was 0.01 to 0.05 µM; in data set [6] it was 0.05 µM; in [8], 0.21 µM. The “Kinase selectivity: (Akt3 inhibitory activity IC50)/(Akt1 inhibitory activity IC50)” value in data set [5] is on record as 4.1-times. Also, the “Kinase selectivity: (Akt2 inhibitory activity IC50)/(Akt1 inhibitory activity IC50)” value in data set [7] is reported as 5.5-times.
As usually defined, the Cmax is the highest concentration seen after dosing. Usually Tmax stands for the time at which the peak concentration occurs. As to `Cn1nccc1-c1ccc(C(=O)N[C@@H]2CNCC[C@H]2c2ccc(F)c(F)c2)c(F)c1.O=C(O)C[C@H](O)C(=O)O` [VII-30], in data set [9], the RTV is 7.29 ± 3.03 and the “T/C(%)” value is listed as 17.27%. Moreover, in [9] (D1 (start)), the “Tumour volume D1” value is 215 ± 88 mm^3. Further, the “Tumour volume D22” value in [9] (D22) is 1157 ± 452* mm^3. Also, in data set [10] (50 mg/kg), the “T/C(%)” value amounted to 22.86%, the “Tumour volume D1” value stood at 125 ± 14 mm^3, the “Tumour volume D 21” value is 328 ± 105** mm^3 and the RTV turned out to be 2.62 ± 0.83. Moreover, in [10] (100 mg/kg), the “T/C(%)” value is 9.26%, the “Tumour volume D1” value is reported as 126 ± 13 mm^3, the “Tumour volume D 21” value is 127 ± 51** mm^3 and the RTV came to 1.06 ± 0.43. For the same molecule, in [11] (20 mg/kg, mean n = 3), the “1/2” value was 3.63 h, the AUC0-inf came to 2390 ng·h/mL and the AUC0-t turned out to be 2350 ng·h/mL. Besides, the “improvement of AUC0-t over VII-1a” value in data set [11] (salt versus free form VII-1a) amounted to 58%. In data set [11] (setting [13]), the Cmax came out at 253 ng/mL and the time of peak concentration (Tmax) came to 1.75 h. Also, the “hERG (Inhibition rate at 3 μM concentration)” value in data set [3] is 20%. For the same molecule, in [3] (setting [14]), the “hERG blocking effect relative to GSK2141795” value is reported as 0.4 and the “hERG blocking effect relative to compound 31 (WO2015/144021A1)” value is reported as 0.32. In addition, in data set [12], the “T/C(%)” value is on record as 32.96%. For the same molecule, in data set [12] (D 1 (start), x ± SE), the “Tumour volume D1” value is listed as 117 ± 65 mm^3. Moreover, the “Tumour volume D22” value in [12] (D 22, x ± SE) is recorded as 248 ± 19* mm^3. The RTV in data set [12] (x ± SE) stood at 3.60 ± 2.67.
